Data: patent publication US10294202B2, “Pyrrolidinones as herbicides” (FMC Corporation, priority 2013, dated 2019)
Read-outs that look alike come from different tables or passages of the source.

Experiments:
galium = assay: Test A postemergence herbicide test; assay type: in vivo, Galium aparine
Excerpt: (§1) At the same time, plants selected from these crop and weed species and also blackgrass (Alopecurus myosuroides), and galium (catchweed bedstraw, Galium aparine) were planted in pots containing the same blend of loam soil and sand and treated with postemergence applications of test chemicals formulated in the same manner. Plants ranged in height from 2 to 10 cm and were in the one- to two-leaf stage for the postemergence treatment. Treated plants and untreated controls were maintained in a greenhouse for approximately 10 days, after which time all treated plants were compared to untreated controls and visually evaluated for injury. Plant response ratings, summarized in Table A, are based on a 0 to 100 scale where 0 is no effect and 100 is complete control. A dash (-) response means no test result.

blackgrass = assay: Test A postemergence herbicide test; assay type: in vivo, Alopecurus myosuroides
Excerpt: as §1

corn = assay: Test A pre-/postemergence herbicide test; assay type: in vivo, Zea mays; conditions: for Corn plant response rating (crop injury, 0 = no effect, 100 = complete kill) at 1000 g/ha: Zea mays, 240 h, 1000 g ai/ha
Method in brief: (§2)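 Both application timings used compounds in a non-phytotoxic solvent plus surfactant. Pre-emergence: soil sprayed directly after seeding into loam/sand. Post-emergence: foliage of 2–10 cm seedlings (1–2 leaves) sprayed. Injury rated ~10 days later, 0–100.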

pigweed = assay: Test A pre-/postemergence herbicide test; assay type: in vivo, Amaranthus retroflexus; conditions: for pest or weed control at 1000 g/ha: Amaranthus retroflexus, 240 h, 1000 g ai/ha, read-out: Plant response rating, Pigweed
Method in brief: as §2

ryegrass, Italian = assay: Test A pre-/postemergence herbicide test; assay type: in vivo, Lolium multiflorum; conditions: for Plant response rating, Ryegrass, Italian: 0 to 100 scale
Excerpt: as §1, with “Seeds of plant species selected from bamyardgrass (Echinochloa crus-galli), kochia (Kochia scoparia), ragweed (common ragweed, Ambrosia elatior), ryegrass, Italian (Italian ryegrass, Lolium multiflorum), crabgrass, large (large crabgrass Digitaria sanguinalis), giant foxtail (Setaria faberii), morningglory (Ipomoea spp.), pigweed (Amaranthus retroflexus), velvetleaf (Abutilon theophrasti), wheat (Triticum aestivum), and corn (Zea mays) were planted into a blend of loam soil and sand and treated preemergence with a directed soil spray using test chemicals formulated in a non-phytotoxic solvent mixture which included a surfactant. At” for “At”

barnyardgrass = assay: Test A pre-/postemergence herbicide test; assay type: in vivo, Echinochloa crus-galli; conditions: for pest or weed control at 1000 g/ha: Echinochloa crus-galli, 240 h, 1000 g ai/ha, read-out: Plant response rating, Barnyardgrass
Excerpt: as §1, with “Seeds of plant species selected from bamyardgrass (Echinochloa crus-galli), kochia (Kochia scoparia), ragweed (common ragweed, Ambrosia elatior), ryegrass, Italian (Italian ryegrass, Lolium multiflorum), crabgrass, large (large crabgrass Digitaria sanguinalis), giant foxtail (Setaria faberii), morningglory (Ipomoea spp.), pigweed (Amaranthus retroflexus), velvetleaf (Abutilon theophrasti), wheat (Triticum aestivum), and corn (Zea mays) were planted into a blend of loam soil and sand and treated preemergence with a directed soil spray using test chemicals formulated in a non-phytotoxic solvent mixture which included a surfactant. At” for “At”

ragweed = assay: Test A pre-/postemergence herbicide test; assay type: in vivo, Ambrosia elatior; conditions: for Plant response rating, Ragweed: 0 to 100 scale
Excerpt: as §1, with “Seeds of plant species selected from bamyardgrass (Echinochloa crus-galli), kochia (Kochia scoparia), ragweed (common ragweed, Ambrosia elatior), ryegrass, Italian (Italian ryegrass, Lolium multiflorum), crabgrass, large (large crabgrass Digitaria sanguinalis), giant foxtail (Setaria faberii), morningglory (Ipomoea spp.), pigweed (Amaranthus retroflexus), velvetleaf (Abutilon theophrasti), wheat (Triticum aestivum), and corn (Zea mays) were planted into a blend of loam soil and sand and treated preemergence with a directed soil spray using test chemicals formulated in a non-phytotoxic solvent mixture which included a surfactant. At” for “At”

wheat = assay: Test A pre-/postemergence herbicide test; assay type: in vivo, Triticum aestivum; conditions: for plant injury at 1000 g/ha: Triticum aestivum, 240 h, 1000 g ai/ha, read-out: Plant response rating, Wheat
Excerpt: as §1, with “Seeds of plant species selected from bamyardgrass (Echinochloa crus-galli), kochia (Kochia scoparia), ragweed (common ragweed, Ambrosia elatior), ryegrass, Italian (Italian ryegrass, Lolium multiflorum), crabgrass, large (large crabgrass Digitaria sanguinalis), giant foxtail (Setaria faberii), morningglory (Ipomoea spp.), pigweed (Amaranthus retroflexus), velvetleaf (Abutilon theophrasti), wheat (Triticum aestivum), and corn (Zea mays) were planted into a blend of loam soil and sand and treated preemergence with a directed soil spray using test chemicals formulated in a non-phytotoxic solvent mixture which included a surfactant. At” for “At”

giant foxtail = assay: Test A pre-/postemergence herbicide test; assay type: in vivo, Setaria faberii; conditions: for pest or weed control at 1000 g/ha: Setaria faberi, 240 h, 1000 g ai/ha, read-out: Plant response rating, Foxtail, Giant
Excerpt: as §1, with “Seeds of plant species selected from bamyardgrass (Echinochloa crus-galli), kochia (Kochia scoparia), ragweed (common ragweed, Ambrosia elatior), ryegrass, Italian (Italian ryegrass, Lolium multiflorum), crabgrass, large (large crabgrass Digitaria sanguinalis), giant foxtail (Setaria faberii), morningglory (Ipomoea spp.), pigweed (Amaranthus retroflexus), velvetleaf (Abutilon theophrasti), wheat (Triticum aestivum), and corn (Zea mays) were planted into a blend of loam soil and sand and treated preemergence with a directed soil spray using test chemicals formulated in a non-phytotoxic solvent mixture which included a surfactant. At” for “At”

kochia = assay: Test A pre-/postemergence herbicide test; assay type: in vivo, Kochia scoparia; conditions: for Plant response rating, Kochia: 0 to 100 scale
Excerpt: as §1, with “Seeds of plant species selected from bamyardgrass (Echinochloa crus-galli), kochia (Kochia scoparia), ragweed (common ragweed, Ambrosia elatior), ryegrass, Italian (Italian ryegrass, Lolium multiflorum), crabgrass, large (large crabgrass Digitaria sanguinalis), giant foxtail (Setaria faberii), morningglory (Ipomoea spp.), pigweed (Amaranthus retroflexus), velvetleaf (Abutilon theophrasti), wheat (Triticum aestivum), and corn (Zea mays) were planted into a blend of loam soil and sand and treated preemergence with a directed soil spray using test chemicals formulated in a non-phytotoxic solvent mixture which included a surfactant. At” for “At”

morningglory = assay: Test A pre-/postemergence herbicide test; assay type: in vivo, Ipomoea spp.; conditions: for pest or weed control at 1000 g/ha: Ipomoea, 240 h, 1000 g ai/ha, read-out: Plant response rating, Morningglory
Excerpt: as §1, with “Seeds of plant species selected from bamyardgrass (Echinochloa crus-galli), kochia (Kochia scoparia), ragweed (common ragweed, Ambrosia elatior), ryegrass, Italian (Italian ryegrass, Lolium multiflorum), crabgrass, large (large crabgrass Digitaria sanguinalis), giant foxtail (Setaria faberii), morningglory (Ipomoea spp.), pigweed (Amaranthus retroflexus), velvetleaf (Abutilon theophrasti), wheat (Triticum aestivum), and corn (Zea mays) were planted into a blend of loam soil and sand and treated preemergence with a directed soil spray using test chemicals formulated in a non-phytotoxic solvent mixture which included a surfactant. At” for “At”

crabgrass, large = assay: Test A pre-/postemergence herbicide test; assay type: in vivo, Digitaria sanguinalis; conditions: for pest or weed control at 1000 g/ha: Digitaria sanguinalis, 240 h, 1000 g ai/ha, read-out: Plant response rating, Crabgrass, Large
Excerpt: as §1, with “Seeds of plant species selected from bamyardgrass (Echinochloa crus-galli), kochia (Kochia scoparia), ragweed (common ragweed, Ambrosia elatior), ryegrass, Italian (Italian ryegrass, Lolium multiflorum), crabgrass, large (large crabgrass Digitaria sanguinalis), giant foxtail (Setaria faberii), morningglory (Ipomoea spp.), pigweed (Amaranthus retroflexus), velvetleaf (Abutilon theophrasti), wheat (Triticum aestivum), and corn (Zea mays) were planted into a blend of loam soil and sand and treated preemergence with a directed soil spray using test chemicals formulated in a non-phytotoxic solvent mixture which included a surfactant. At” for “At”

velvetleaf = assay: Test A pre-/postemergence herbicide test; assay type: in vivo, Abutilon theophrasti; conditions: for pest or weed control at 1000 g/ha: Abutilon theophrasti, 240 h, 1000 g ai/ha, read-out: Plant response rating, Velvetleaf
Method in brief: as §2

[1] = 125 g ai/ha, 0 to 100 scale, 0 is no effect, 100 is complete control
[2] = Postemergence, 125 g ai/ha, 0 to 100 scale, 0 is no effect, 100 is complete control
[3] = 125 g ai/ha, visual rating, 0 to 100 scale, 0 no effect, 100 complete control, approximately 10 days, preemergence
[4] = 125 g ai/ha, visual rating, 0 no effect, 100 complete control, approximately 10 days, preemergence
[5] = Postemergence, 125 g ai/ha, 0 is no effect, 100 is complete control
[6] = preemergence, 500 g ai/ha, 0 is no effect and 100 is complete control
[7] = preemergence, 500 g ai/ha, 0 to 100 scale (0 no effect, 100 complete control)
[8] = preemergence, 500 g ai/ha, 0 to 100 scale
[9] = post-emergence, Postemergence, 0 to 100 scale (0 no effect, 100 complete control)
[10] = pre-emergence, Preemergence, visual rating on 0 to 100 scale (0 no effect, 100 complete control), approx. 10 days
[11] = Postemergence, 125 g ai/ha, 0 to 100 scale, 0 no effect, 100 complete control
[12] = Postemergence, 500 g ai/ha, 0 to 100 scale (0 no effect, 100 complete control)
[13] = Preemergence, 125 g ai/ha, visual rating on 0 to 100 scale (0 no effect, 100 complete control)

O=C1NCC(c2cc(F)cc(F)c2)C1C(=O)Nc1cccc(F)c1F (racemic) [Compound 157]
Plant response rating, Galium (galium; [1]): 40 | Galium plant response rating (0 to 100 scale, 0 is no effect, 100 is complete control) (galium; 500 g ai/ha): 40 | Plant response rating, Blackgrass (blackgrass; [1]): 30 | Blackgrass plant response rating (0 to 100 scale, 0 is no effect, 100 is complete control) (blackgrass; 500 g ai/ha): 30 | Plant response rating, Corn (corn; [2]): 50 | Corn plant response rating (0 to 100 scale, 0 is no effect, 100 is complete control) (corn; Postemergence, 500 g ai/ha): 80 | Plant response rating, Pigweed (pigweed; [3]): 0 | Plant response rating, Pigweed (pigweed; [2]): 0 | Pigweed plant response rating (0 to 100 scale, 0 is no effect, 100 is complete control) (pigweed; Postemergence, 500 g ai/ha): 30 | Plant response rating, Pigweed (pigweed; preemergence, 500 g ai/ha, 0 to 100 scale, 0 is no effect and 100 is complete control): 50 | Plant response rating, Ryegrass, Italian (ryegrass, Italian; [4]): 30 | Plant response rating, Ryegrass, Italian (ryegrass, Italian; [5]): 30 | Ryegrass, Italian plant response rating (0 to 100 scale, 0 is no effect, 100 is complete control) (ryegrass, Italian; Postemergence, 500 g ai/ha): 30 | Plant response rating, Ryegrass, Italian (ryegrass, Italian; [6]): 60 | Plant response rating, Barnyardgrass (barnyardgrass; [3]): 90 | Plant response rating, Barnyardgrass (barnyardgrass; [2]): 70 | Barnyardgrass plant response rating (0 to 100 scale, 0 is no effect, 100 is complete control) (barnyardgrass; Postemergence, 500 g ai/ha): 80 | Plant response rating, Barnyardgrass (barnyardgrass; [7]): 90 | Plant response rating, Ragweed (ragweed; [4]): 30 | Plant response rating, Ragweed (ragweed; [5]): 20 | Ragweed plant response rating (0 to 100 scale, 0 is no effect, 100 is complete control) (ragweed; Postemergence, 500 g ai/ha): 40 | Plant response rating, Ragweed (ragweed; [6]): 50 | Plant response rating, Wheat (wheat; [2]): 40 | Wheat plant response rating (0 to 100 scale, 0 is no effect, 100 is complete control) (wheat; Postemergence, 500 g ai/ha): 70 | Plant response rating, Foxtail, Giant (giant foxtail; [3]): 90 | Plant response rating, Foxtail, Giant (giant foxtail; [2]): 80 | Foxtail, Giant plant response rating (0 to 100 scale, 0 is no effect, 100 is complete control) (giant foxtail; Postemergence, 500 g ai/ha): 80 | Plant response rating, Foxtail, Giant (giant foxtail; [8]): 90 | Plant response rating, Kochia (kochia; [4]): 50 | Plant response rating, Kochia (kochia; [5]): 20 | Kochia plant response rating (0 to 100 scale, 0 is no effect, 100 is complete control) (kochia; Postemergence, 500 g ai/ha): 30 | Plant response rating, Kochia (kochia; [6]): 70

O=C(Nc1ccccc1F)C1C(=O)N(O)CC1c1ccc(F)c(F)c1 (stereo not drawn) [Compound 44, 4-(3,4-difluorophenyl)-N-(2-fluorophenyl)-1-hydroxy-2-oxo-3-pyrrolidinecarboxamide]
Corn plant response rating (crop injury, 0 = no effect, 100 = complete kill) at 1000 g/ha (corn; [9]): 0% | Corn plant response rating (crop injury, 0 = no effect, 100 = complete kill) at 1000 g/ha (corn; [10]): 0% | pest or weed control at 1000 g/ha (morningglory; [9]): 0% | pest or weed control at 1000 g/ha (morningglory; [10]): 0% | pest or weed control at 1000 g/ha (pigweed; [9]): 0% | pest or weed control at 1000 g/ha (pigweed; [10]): 0% | pest or weed control at 1000 g/ha (barnyardgrass; [9]): 60% | pest or weed control at 1000 g/ha (barnyardgrass; [10]): 40% | pest or weed control at 1000 g/ha (crabgrass, large; [9]): 50% | pest or weed control at 1000 g/ha (crabgrass, large; [10]): 90% | pest or weed control at 1000 g/ha (velvetleaf; [9]): 0% | pest or weed control at 1000 g/ha (velvetleaf; [10]): 0% | plant injury at 1000 g/ha (wheat; [9]): 0% | plant injury at 1000 g/ha (wheat; [10]): 0% | pest or weed control at 1000 g/ha (giant foxtail; [9]): 30% | pest or weed control at 1000 g/ha (giant foxtail; [10]): 70%

O=C1NCC(c2ccccc2)C1(Br)C(=O)Nc1ccc(Br)cc1F (stereo not drawn) [Compound 94]
Plant response rating, Corn (corn; [11]): 0 | Plant response rating, Corn (corn; [12]): 0 | Corn plant response rating (corn; [13]): 0 | Plant response rating, Corn (corn; [8]): 0 | Plant response rating, Morningglory (morningglory; [11]): 0 | Plant response rating, Morningglory (morningglory; [12]): 0 | Morningglory plant response rating (morningglory; [13]): 0 | Plant response rating, Morningglory (morningglory; [8]): 0 | Plant response rating, Pigweed (pigweed; [11]): 0 | Plant response rating, Pigweed (pigweed; [12]): 0 | Pigweed plant response rating (pigweed; [13]): 0 | Plant response rating, Barnyardgrass (barnyardgrass; [11]): 0 | Plant response rating, Barnyardgrass (barnyardgrass; [12]): 0 | Barnyardgrass plant response rating (barnyardgrass; [13]): 0 | Plant response rating, Barnyardgrass (barnyardgrass; [7]): 0 | Plant response rating, Crabgrass, Large (crabgrass, large; [11]): 0 | Plant response rating, Crabgrass, Large (crabgrass, large; [12]): 0 | Crabgrass, Large plant response rating (crabgrass, large; [13]): 0 | Plant response rating, Crabgrass, Large (crabgrass, large; [8]): 50 | Plant response rating, Velvetleaf (velvetleaf; [11]): 0 | Plant response rating, Velvetleaf (velvetleaf; [12]): 0 | Velvetleaf plant response rating (velvetleaf; [13]): 0 | Plant response rating, Wheat (wheat; [11]): 0 | Plant response rating, Wheat (wheat; [12]): 0 | Wheat plant response rating (wheat; [13]): 0 | Plant response rating, Wheat (wheat; [8]): 0 | Plant response rating, Foxtail, Giant (giant foxtail; [11]): 0 | Plant response rating, Foxtail, Giant (giant foxtail; [12]): 0 | Foxtail, Giant plant response rating (giant foxtail; [13]): 0 | Plant response rating, Foxtail, Giant (giant foxtail; [8]): 0
